Measurements from US7674579B2, “Apoptosis-based evaluation of chemosensitivity in cancer patients” (Yale University, priority 2003, dated 2010).

How the values were obtained:
[1] = system: EOC R182 cells; assay: Western blot for activated caspase-3, EOC R182 cells; type: cell-based, human
Experimental: (§1) Cells were treated with drug as described above. Cells were then scraped from the culture vessel, pelleted at 2000 rpm at room temperature and lysed in phosphate buffered saline with 1% NP40, 0.1% sodium dodecyl sulfate. After 20 min on ice, debris was removed by centrifugation at 14,000×g at 4° C.
(§2) Protein concentration was determined and 20 μg samples were denatured in sample buffer (2.5% SDS, 10% glycerol, 5% b-mercaptoethanol, 0.15 M Tris (pH 6.8) and 0.01% broinophenol blue) and subjected to 10 or 12% SDS-PAGE. Proteins were transferred to PVDF membranes (Immobilon, Millipore, Bedford, Mass.) at 100V for 105 min.
(§3) Western blots were performed as previously described (32) (28). Antibodies and concentrations were: rabbit anti-actin (Sigma, 1:10,000), rabbit anti-proform caspase-3 (Santa Cruz, Santa Cruz Calif. 1:1000), rabbit anti-cleaved-caspase-3 (CellSignaling, 1:1000). Antibody binding was determined by enhanced chemiluminescence detection of peroxidase conjugated secondary antibodies (Vector).

[2] = system: A2780 cells; assay: Caspase-3 assay (dose response and time course), A2780 cells; type: cell-based, human
Experimental: (§4) Ovarian cancer cell lines HEY (gift from Dr. J M Trent, (26)), A2780 and CP70 (gifts from Dr. T C Hamilton, (27)) were cultured at 37° C. in a 5% CO2 atmosphere. Culture medium varied with the cell line: DME/F12 plus 1% calf serum (HEY); DME/F12 plus 10% FBS, 584 ug/ml L glutamine (A2780 and CP70). All formulations contained 100 μg/ml streptomycin, 62.5 μg/ml penicillin and 2.5 μg/ml amphotericin. Primary cells were cultured in 50% 199 media and 50% MCDB 105 media (Sigma), supplemented with 10% fetal bovine serum (Hyclone, South Logan, Utah), 10 mM HEPES, 0.1 mM MEM non-essential amino acids, 1 mM sodium pyruvate, 100 nM penicili/streptomycin (Gibco) and 4 ng/ml EGF (Sigma). […]
(§5) After drug treatment, cells were lysed and collected in cold 10 mM Tris, pH 7.5, 10 mM Na Phosphate buffer, 130 mM NaCl, 1% Triton X-100, 10 mM Na Pyrophosphate plus freshly added Protease Inhibitor Cocktail (20 μl/ml, Sigma P8340) and 2 MM PMSF. […] Protein concentration was determined by BioRad Protein Assay (BioRad).
(§6) Caspase-3 activity was measured in duplicate from 50 μg cell lysate samples (lysate comprised less than 20% of the total reaction volume)(Promega Corp. CaspACE™ Assay System, Colorimetric). […] Absorbance of the cleaved product was read at 405 nm in a Dynatech MR3000 plate reader. Blank values were subtracted and caspase-3 activity was expressed as the absorbance at 405 nm of the cleaved substrate (pNA). […]

[3] = system: EOC cells RI82S; assay: TUNEL assay, EOC cells R182S; type: cell-based, human
Experimental: (§7) To avoid loss of the apoptotic cells, which detach from monolayer culture and are washed away, cells were cultured in suspension above a one ml layer of 1% agarose per well of a 6-well plate. Two ml of cells at 1×10^5/ml growth medium were placed in each well and incubated at 37° C. with 5% CO2. Plates were agitated gently once per day. After drug exposure for 4 hr, the cells were centrifuged, resuspended in fresh medium and returned to the same wells for 48 hr. Cells were centrifuged at 1000 rpm for 10 min, resuspended in 0.5 ml 10% neutral buffered formalin and incubated at room temperature for 10 min. Centrifugation was repeated and cells were resuspended in 80% ethanol. A 25 μl aliquot was pipeted onto a glass slide and dried at room temperature until no moisture was evident. Cells were calorimetrically stained with TUNEL assay reagents (Trevigen) according to the protocol provided by the manufacturer.

[4] = system: CP70 cells; assay: Western blot for activated caspase-3, CP70 cells; type: cell-based, human
Experimental: as §1, §2, §3

[5] = system: EOC cells S 103; assay: TUNEL assay, EOC cells S103; type: cell-based, human; details: S 103 cells
Experimental: as §7

[6] = system: Three established ovarian cancer cell lines and 19 ovarian cancer patient-derived cell samples; assay: Caspase-3 assay, distribution of apoptotic response over 22 cases; type: cell-based, human; details: of 22 cases, drugs tested separately
Experimental: Ovarian cancer cell lines HEY (gift from Dr. J M Trent, (26)), A2780 and CP70 (gifts from Dr. T C Hamilton, (27)) were cultured at 37° C. in a 5% CO2 atmosphere. Culture medium varied with the cell line: […] All formulations contained 100 μg/ml streptomycin, 62.5 μg/ml penicillin and 2.5 μg/ml amphotericin. […] For drug treatments, approximately 1×10^5 cells in exponential growth were sub-cultured in a 25 cm^2 flask per treatment. […] With informed consent from 28 patients undergoing routine procedures at Yale-New Haven Hospital 100 to 200 ml of ascites fluid or pelvic washings were obtained. Epithelial cells were collected as previously described (28). Briefly, samples were centrifuged and the cellular pellet was resuspended in Hank's Balanced Salt Solution (HBSS; Gibco Invitrogen, Carlsbad, Calif.). The suspension was centrifuged at 1500 rpm for 10 mins at room temperature. The pellet was then resuspended in HBSS and layered onto LSM lymphocyte separation medium (ICN Biomedicals Inc, Aurora, Ill.) and centrifuged at 2000 rpm for 25 minutes at room temperature. The mononuclear cell-containing layer was collected and incubated with an anti-CD45 mAb conjugated to magnetic beads (Dynal, Oslo, Norway) at 4° C. with rotation for 30 minutes. Following this incubation, the cells were placed into a magnet and the unbound epithelial cells were collected, washed and placed into culture media. […] Remaining cells were cultured in primary culture medium as described above and evaluated for morphological evidence of malignancy by a pathologist. Viable, malignant cells were isolated from 21 of the 28 samples. In agreement with Lounis et al. (29), any fibroblastic cells in the isolated population disappeared after 2 to 3 passages and cells survived on average for 7 to 8 passages. […] Lysates were incubated on ice for 30 min, mixing every 5 min by gentle vortexing. […] Supernatants were frozen and stored at -70° C. Protein concentration was determined by BioRad Protein Assay (BioRad). […] CaspACETM Assay System, Colorimetric). […] Plates were incubated at 37° C. for 4 hr. Absorbance of the cleaved product was read at 405 nm in a Dynatech MR3000 plate reader. Blank values were subtracted and caspase-3 activity was expressed as the absorbance at 405 nm of the cleaved substrate (pNA). Drug treated samples were compared with samples which had not been treated to give a value called relative activity.

[7] = system: CP70; assay: Clonogenic assay, CP70 cell line; type: cell-based, human
Experimental: (§8) Ovarian cancer cell lines HEY (gift from Dr. J M Trent, (26)), A2780 and CP70 (gifts from Dr. T C Hamilton, (27)) were cultured at 37° C. in a 5% CO2 atmosphere. Culture medium varied with the cell line: DME/F12 plus 1% calf serum (HEY); DME/F12 plus 10% FBS, 584 ug/ml L glutamine (A2780 and CP70). All formulations contained 100 μg/ml streptomycin, 62.5 μg/ml penicillin and 2.5 μg/ml amphotericin. Primary cells were cultured in 50% 199 media and 50% MCDB 105 media (Sigma), supplemented with 10% fetal bovine serum (Hyclone, South Logan, Utah), 10 mM HEPES, 0.1 mM MEM non-essential amino acids, 1 mM sodium pyruvate, 100 nM penicili/streptomycin (Gibco) and 4 ng/ml EGF (Sigma). For drug treatments, approximately 1×10^5 cells in exponential growth were sub-cultured in a 25 cm^2 flask per treatment. Carboplatin (Sigma C2538) or paclitaxel (Sigma T7402) was added to the media after the cells reached 60-70% confluence as described in the Results.
Cells were seeded at 600 per 60 mm culture dish and incubated overnight to establish adherence then exposed to varying concentrations of drug for 4 hours. Medium was replaced and incubation was continued for 10-14 days. The cells were washed with 0.9% saline solution then fixed and stained in 72% methanol, 10% formaldehyde, 0.25% crystal violet. Colonies greater than 30 cells were counted. Percent survival was calculated based on the number of colonies in untreated dishes. Each treatment was done at least in duplicate.

[8] = system: A2780 ovarian cancer cells; assay: Western blot for activated caspase-3, A2780 cells; type: cell-based, human
Experimental: as §1, §2, §3

[9] = system: CP70 cells; assay: Caspase-3 assay (dose response and time course), CP70 cells; type: cell-based, human; details: CP70, 0.1 μM, 30 hours treatment
Experimental: as §4, §5, §6

[10] = system: A2780; assay: Clonogenic assay, A2780 cell line; type: cell-based; details: Homo sapiens, clonogenic survival, 4 hours drug exposure, 10-14 days
Experimental: as §8
(§9) Cells were seeded at 600 per 60 mm culture dish and incubated overnight to establish adherence then exposed to varying concentrations of drug for 4 hours. Medium was replaced and incubation was continued for 10-14 days. […] Colonies greater than 30 cells were counted. Percent survival was calculated based on the number of colonies in untreated dishes. […]

[11] = system: HEY; assay: Clonogenic assay, HEY cell line; type: cell-based, human
Experimental: as §8, §9

[12] = system: invasive ovarian carcinoma; details: of 13 patients
Source text: Patients were monitored for disease recurrence based on physical symptoms, physical examination, CA-125 levels and radiologic imaging. Chemosensitivity is defined as no evidence of disease recurrence, based on the above monitoring, within 6 months of completing the chemotherapy regimen of carboplatin and paclitaxel. Sensitivity of six months is commonly used to define which patients are platinum-sensitive in order to direct second-line therapy (30).

N.N.O=C([O-])C1(C(=O)[O-])CCC1.[Pt+2] [Carboplatin]
expression of the active forms of caspase-3 ([1]; EOC R182, 100 μg/ml for 48 hr): No active forms of caspase-3 are present
caspase-3 activity ([2]; A2780, 24 hour exposure): significant caspase-3 activity
caspase-3 activity ([2]; A2780, 48 hour treatment, 100 μg/ml): Optimal activity
percentage of TUNEL-positive cells ([3]; 100 μg/ml): 90%
expression of the active forms of caspase-3 ([4]; CP70, 100 μg/ml for 48 hr): No active forms of caspase-3 are present
percentage of cells that stain for apoptosis (TUNEL) ([5]; 100 μg/ml): 30.40%
Number of Cases Resistant (no increase of caspase-3 activity) [6]: 1
Number of Cases Sensitive (increased caspase-3 activity relative to untreated samples) [6]: 21
Number of Cases Resistant (no increase of caspase-3 activity) ([6]; listed as carboplatin): one
resistance of CP70 relative to A2780 ([7]; clonogenic IC50, CP70 vs A2780): about 25 fold
expression of the active forms of caspase-3 ([8]; A2780, carboplatin treatment): moderate levels

CC(=O)O[C@H]1C(=O)[C@@]2(C)[C@H]([C@H](OC(=O)c3ccccc3)[C@]3(O)C[C@H](OC(=O)[C@H](O)[C@@H](NC(=O)c4ccccc4)c4ccccc4)C(C)=C1C3(C)C)[C@]1(OC(C)=O)CO[C@@H]1C[C@@H]2O [Paclitaxel]
caspase-3 activity [9]: significant caspase-3 activity
IC50 [10]: 43.7 nM
expression of the active forms of caspase-3 ([1]; EOC R182, 0.1 μM for 30 hr): no expression of caspase-3 active forms
increase in number of TUNEL-positive cells compared to the untreated controls ([3]; 0.1 μM): 30-40%
expression of the active forms of caspase-3 ([4]; CP70, 0.1 μM for 30 hr): induces the expression of the active forms of caspase-3
relative response among the three cell lines ([11]; HEY cells, clonogenic assay): most resistant
IC50 ([11]; Homo sapiens, HEY, clonogenic survival, 4 hours drug exposure, 10-14 days): 100 nM
increase in number of TUNEL-positive cells compared to the untreated controls ([5]; 0.1 μM): 10-20%
Number of Cases Resistant (no increase of caspase-3 activity) [6]: 12
Number of Cases Sensitive (increased caspase-3 activity relative to untreated samples) [6]: 10
Number of Cases Resistant (no increase of caspase-3 activity) ([6]; listed as paclitaxel): Twelve
Number of Cases Sensitive (increased caspase-3 activity relative to untreated samples) ([6]; listed as paclitaxel): Ten
relative response among the three cell lines ([7]; CP70 cells, clonogenic assay): most sensitive
IC50 ([7]; Homo sapiens, CP70, clonogenic survival, 4 hours drug exposure, 10-14 days): 18.6 nM
expression of the active forms of caspase-3 ([8]; A2780, paclitaxel treatment): high levels

Carboplatin and Paclitaxel
number of patients clinically responsive (chemo-sensitive) ([12]; no evidence of disease recurrence for 6 months following completion of the regimen): seven
number of patients chemo-resistant ([12]; recurrence within 6 months of completing the regimen): six
Number of Cases Resistant (no increase of caspase-3 activity) [6]: 1
Number of Cases Sensitive (increased caspase-3 activity relative to untreated samples) [6]: 10
